Results: a melting point compilation (Tetko et al.; mined from patent text by program, amines drawn as free bases though some values may be those of a salt)

Row | SMILES | melting point
1 | C[C@H](NC(=O)OC(C)(C)C)C(=O)NC1N=C(c2ccccn2)c2ccccc2N(C)C1=O (stereo partly drawn) | 228 to 229 °C
2 | CCCCC1(CCCC)NC(=O)c2ccccc2N1C | 77 to 78 °C
3 | COc1ccc(CC(C)NCC(O)c2cccc(Cl)c2F)cc1 (stereo not drawn) | 95 to 101 °C
4 | COc1ccc(CNc2ncnc3c2ncn3C2OC(c3nnn[nH]3)C(O)C2O)cc1 (stereo not drawn) | 210 to 211 °C
5 | COc1ccc(/C=C(\C#N)c2ccc(O)cc2)cc1OC1CCCC1 | 138 to 140 °C
6 | CSc1ccc(C=O)cc1OC(C)C | 50 to 54 °C
7 | CC1(C)Cc2c(Cl)c([N+](=O)[O-])cc(C(=O)O)c2O1 | 260 to 262 °C
8 | N#CC(CCCCCC(=O)O)c1ccc2ccccc2c1 (stereo not drawn) | 88 to 89 °C
9 | Cc1cccc(-c2n[nH]cc2-c2ccc(F)c(-c3ccc(C(C)O)cn3)c2)n1 (stereo not drawn) | 149 to 151 °C
10 | O=C(CC(=O)C(CF)CF)c1ccc(OCc2ccccc2)cc1 | 184 to 188 °C
11 | CC(C)CNS(=O)(=O)c1ccc(N)c(C(=O)N2CCN(C)CC2)c1 | 162 to 163 °C
12 | COC(=O)Cn1c(Cc2ccccc2)ccc(NC(=O)CCCc2ccccc2)c1=O | 93 to 95 °C
13 | CC(C)(C)C(=O)c1ccc(C(=O)NC(=O)c2ccc(C(=O)C(C)(C)C)cc2)cc1 | 131 to 132 °C
14 | COc1ccc(CCCC(CC(=O)O)CC(=O)O)cc1 | 71 to 73 °C
15 | COC(=O)CCCc1cc2cc(Cl)ccc2n1S(=O)(=O)c1ccc2nc(N)oc2c1 | 238 °C
16 | CCCCNC(=O)OCC(=NNC(N)=S)c1ccccc1 | 103 to 116 °C
17 | O=C(O)CC1CCOc2ccc(Cl)cc21 (stereo not drawn) | 115 to 117 °C
18 | O=Cc1ccc(N(c2ccccc2)c2ccc3c4c(cccc24)CC3)cc1 | 138 to 141 °C
19 | COc1ccc(CCNC(=O)c2ccc3c(c2)C=CC(C)(C)O3)cc1 | 105 to 107 °C
20 | Cc1c(C#N)c(O)cc2nc(Cc3ccccc3)nn12 | 319 to 320 °C
21 | CCCCc1oc2ccccc2c1C(=O)N(C)Cc1ccc(-c2ccc(OCC(=O)O)c(Br)c2)cc1 | 72 to 78 °C
22 | CSC1=Nc2cccnc2Nc2cscc21 | 138 to 140 °C
23 | Cc1ccc(S(=O)(=O)OC2CCc3[nH]c4ccc(C)cc4c3C2)cc1 (stereo not drawn) | 125 to 127 °C
24 | COc1cc2c(-c3ccc(Cl)cc3)csc2c(Cl)c1Cl | 190 to 191 °C
25 | CC(=O)NS(=O)(=O)c1ccc(C2=C(c3ccccc3)C(=O)C(C)(C)O2)cc1Cl | 194 to 195 °C
26 | Cc1cc(=O)n(-c2cc(N)c(Cl)cc2F)c(=O)n1C | > 220 °C

Row | SMILES | melting point
27 | Cc1ncn(-c2ccc(CNC(=O)c3nc4n(c(=O)c3OCc3ccccc3)CCOC4(C)C)c(F)c2)n1 | 183 to 185 °C
28 | CCOC(=O)Nc1cc([N+](=O)[O-])ccc1F | 90 to 92 °C
29 | CCOc1cc(N(CC)CC)ccc1C1(c2ccc(N(C)C)cc2N(C)C)OC(=O)c2ccccc21 (stereo not drawn) | 146 to 150 °C
30 | C=Cn1cc(C(=O)O)c(=O)c2cc(F)c(N3CCC(NC)C3)nc21 (stereo not drawn) | 160 to 161 °C
31 | O=C(C[C@H](NC(=O)C(F)(F)F)C(=O)O)c1ccc2c(c1)Cc1ccccc1-2 | 111 to 115 °C
32 | CC1(c2ccccc2)CN(c2ccnc(N)c2)C(=O)O1 (stereo not drawn) | 140 to 141 °C
33 | CCOC(=O)c1c(N)c2cc(Cl)ccc2n1C(=O)C(F)(F)F | 249 to 251 °C
34 | CC(=O)N1CCc2cc(N)cnc21 | 193 to 195 °C
35 | C=CCOc1ccc2ccc(C(=O)OCC)cc2c1 | 60 to 61 °C
36 | O=c1c(NCCCN(Cc2cccs2)c2ccccn2)c(NCc2ccncc2)c1=O | 189 to 192 °C
37 | O=C(NCc1ccccn1)Nc1cc(-n2cc(-c3ccccc3)oc2=O)ccn1 | 208 to 209 °C
38 | COc1ccc(NN=C(Sc2ccccc2C)C(C)=O)cc1 | 112 to 114 °C
39 | Cc1cccc(-n2ccc(=O)c(-c3ccnn3-c3ccccc3)n2)c1 | 115 to 116 °C
40 | COCOc1cc(OCOC)c2c(=S)cc(C)oc2c1 | 109 to 110 °C
41 | CCCc1ccc2nc(SCC)c(S(N)(=O)=O)n2n1 | 176 to 177 °C
42 | CCCN=C(N)Nc1ccnc(CCCCc2c[nH]cn2)n1 | 172 to 174 °C
43 | CC(=O)OCc1c(O)cccc1[N+](=O)[O-] | 113 to 114 °C
44 | CC1(NCC(O)c2ccc3nnnn3c2)CC1 (stereo not drawn) | 72 to 73 °C
45 | COC(=O)COc1cccc2c(O)c(C(C)=O)ccc12 | 130 to 135 °C
46 | CCOC(=O)c1ccc(COCc2csc3nc(C(=O)NCc4cccc(OC)c4)[nH]c(=O)c23)cc1 | 173 °C
47 | CCc1nc(-c2cc3cc(OCCNC[C@H](O)COc4ccccc4)ccc3o2)no1 | 97 to 98 °C
48 | O=C(O)c1cn([C@@H]2C[C@@H]2F)c2cc(F)ccc2c1=O | 302 to 305 °C
49 | Cc1ccc(NC(=O)NCc2ccc3c(c2)C(=O)N(C2(C)CCC(=O)NC2=O)C3=O)cc1Cl (stereo not drawn) | 232 to 234 °C
50 | Cc1cc(-n2ncc(-c3ccc(S(C)(=O)=O)cc3)c(-c3ccc(F)cc3)c2=O)ccc1F | 168 to 170 °C
51 | Sc1ncc2c(n1)-c1ccc(Cl)cc1C(c1ccccc1Cl)=NC2 | 232 to 234 °C
52 | CCCc1c(O)n2c3c(=O)n(C)c(=O)n(C)c3nc2n(Cc2ccccc2)c1=O | 217 °C

Row | SMILES | melting point
53 | CCOC(Nc1ccccc1)(OCC)C1(F)C=CN=C(C(=O)c2ccc(Cl)cc2)C1 (stereo not drawn) | 96 to 97 °C
54 | COc1cc(N)cc([N+](=O)[O-])c1OC | 129 to 131 °C
55 | O=C1CN(C(=O)C(Cl)Cl)N(Cc2ccc(Cl)c(Cl)c2)C(=O)N1 | 196 °C
56 | O=Cc1cccc(-c2nnc(-c3ccc(C(F)(F)F)cc3)o2)c1 | 129 to 130 °C
57 | COC(=O)C1=CCC(=NON)C=C1 | 170 to 172 °C
58 | Cn1nc(-c2ccc(Cl)cc2Cl)cc1OC(F)F | 35 °C
59 | CCOc1sc(C(=O)N2CCCC2)c2c1C(=O)C(=CO)C(C)(C)C2 | 140 to 142 °C
60 | CC(C)(CC(O)(Cn1ccc2c1CCCC2=O)C(F)(F)F)c1cccc2c1OCC2 (stereo not drawn) | 145 to 146 °C
61 | O=C(O)[C@@H]1C[C@H]1Sc1nc2ccccc2cc1-c1ccccc1 (relative stereo) | 168 to 170 °C
62 | O=c1ccccn1[C@@H]1c2cc(C(F)(F)F)ccc2OC(CF)(CF)[C@H]1O (relative stereo) | 210 to 212 °C
63 | CC(C)Cn1nc(-c2ccc(C(F)(F)F)cc2)cc(COS(C)(=O)=O)c1=O | 123 to 124 °C
64 | CCCCCCCCS(=O)(=O)Nc1cc(C(F)(F)F)ccc1Oc1ccccc1C(=O)O | 167 to 168 °C
65 | O=c1[nH]c2cc(C(F)(F)F)c(-n3ccnc3)cc2n2c(=S)[nH]nc12 | > 300 °C
66 | O=c1[nH]c(N2CCCC(CO)C2)cc2ccccc12 (stereo not drawn) | 143 to 144 °C
67 | O=C(c1ccc2nonc2c1)N1CCC(O)CC1 | 132 to 136 °C
68 | CCn1ncc2c3noc(-c4ccc(C(F)(F)F)cc4)c3cnc21 | 243 to 245 °C
69 | CN(C(=N)N)c1nccc(Oc2ccc(NC(=O)c3cc(F)cc(N4CCOCC4)c3)c3ccccc23)n1 | 155 to 157 °C
70 | C=CCn1nnc2cc(F)c(-n3c(=O)cc(C(F)(F)F)n(C)c3=O)cc21 | 136 to 138 °C
71 | CCCCCC(C)(C)NC(=O)CCl | 36 to 37 °C
72 | O=Cc1ccc2c(c1)CCC(C(=O)O)C2 (stereo not drawn) | 205 to 212 °C
73 | COc1ccc(Cl)ccc1=O | 124 to 126 °C
74 | COC(=O)c1cccc(OC2CCOc3ccc(OCc4ccccc4)cc3C2=O)c1 (stereo not drawn) | 134 to 136 °C
75 | CC(C)(C)NCCCCOc1ccccc1C(=O)Nc1cccc2[nH]ccc12 | 147 °C
76 | CCCCCCCCCCOC(=O)c1ccc(O)c(OC)c1 | 40 to 40.5 °C
77 | COC(=O)c1[nH]c(=S)n(Nc2cccc(Cl)c2)c1C | 160 to 162 °C
78 | CCCCCCCCCCCCCCS(=O)(=O)NC(=O)Nc1c(C(C)C)cccc1C(C)C | 135 to 137 °C

Row | SMILES | melting point
79 | Cc1c(C(=O)O)ccc(Oc2cccnc2)c1S(C)(=O)=O | 214 to 216 °C
80 | COc1cc(C(=O)c2nc(C(=O)O)c3ccccn23)ccc1N | 226 °C
81 | COc1ccc2c(n1)c(CCNC(C)=O)c1n2CCCC1 | 89 to 90 °C
82 | CSc1ccc(-c2cc(C(F)F)nn2-c2ccc(S(N)(=O)=O)cc2)cc1 | 157 to 158 °C
83 | CCOc1ccc(C(=O)Nc2ccc3ccc(Cl)nc3n2)cc1 | 208 °C
84 | O=c1[nH]c2ccc(Cl)cc2c2nc(-c3cccnc3)nn12 | 189 to 193 °C
85 | O=C(Nc1ccc(F)cc1)Nc1nc(Nc2ccc(Cl)cc2)sc1C(=O)c1ccc(Cl)cc1Cl | > 280 °C
86 | Cc1cc(-n2ccnc2)c2cccc(OCc3c(Cl)ccc(S(=O)(=O)N4CCC[C@H]4C(=O)NCC4CCN(CCCCO)CC4)c3Cl)c2n1 | 112 °C
87 | COC(=O)c1cc(-c2c(Br)c(C(F)(F)F)n(C)c2Br)c(F)cc1Cl | 97 °C
88 | CSC(=S)NCCNC(C)=O | 139 to 140 °C
89 | CN1CCN(c2nc3cccccc-3n2)CC1 | 93 to 95 °C
90 | CN(Cc1ccc(Cl)cc1)C(=O)C12CC3CC(CC(C3)C1)C2 | 65 to 66.5 °C
91 | Cc1cc(C)n(-c2cncc(Nc3ccc(Cl)cc3)n2)n1 | 157 to 159 °C
92 | CNc1ncc2c(-c3cccc(Cl)c3)cc(/C=C/C(=O)O)c(OC)c2n1 | 291 to 295 °C
93 | CCCCC/C=C\C/C=C\CCCCCCCC(=O)Nc1c(OC)cc(OC)cc1OC | 87 to 89 °C
94 | COc1ccc(-c2nc(Cl)c(Oc3ccccc3OC)c(NS(=O)(=O)c3ccc(C(C)(C)C)cc3)n2)cc1 | 221 to 222 °C
95 | CC(=O)NCc1cccc(Nc2nccc(-c3sc(C)nc3C)n2)c1 | 206 to 207 °C
96 | Cc1sccc1C(=O)O | 71 to 73 °C
97 | COC(=O)c1cccc(-c2nc(-c3ccc(OC)cc3)cs2)c1 | 108 to 109 °C
98 | O=[N+]([O-])c1ccccc1CSc1nnnn1-c1ccccc1 | 158 to 161 °C
99 | Clc1cc(-c2cc3ccccc3s2)nc2ccccc12 | 142 to 145 °C
100 | CCS(=O)(=O)Nc1ccc(C(O)CNCC2CCc3ccccc3C2=O)cc1 (stereo not drawn) | 120 to 122 °C
101 | Oc1nc2ccccc2n2c(C(F)(F)F)nnc12 | > 300 °C
102 | O=C(O)c1ccc2c(c1)Sc1ccccc1N=C2N1CCOCC1 | 267 to 269 °C
103 | CC=C1CCC2C3C(O)CC4CC(O)CCC4(C)C3CCC12C (stereo not drawn) | 160 to 161 °C
